Values joined by “and” are separate entries in the source; they are usually repeats but may differ in a detail not shown here. Equal values may be shown once.
How the values were obtained:
Leishmania donovani = test: Leishmania intramacrophage assay; type: functional, organism-based; settings: for IC50: Leishmania donovani
[1] = microbe, parasite or virus in culture; settings: Mycobacterium tuberculosis, 96 h, read-out: pIC50 (converted)
[2] = microbe, parasite or virus in culture; settings: Mycobacterium tuberculosis, 72 h, read-out: pIC50 (converted)
Histidine--tRNA ligase = molecular target: T1, Histidine--tRNA ligase (Leishmania infantum, UniProt A4I591); test: Leishmania infantum Histidine tRNA synthetase (LdHisRS); type: functional
T1 sequence (A4I591 whole entry): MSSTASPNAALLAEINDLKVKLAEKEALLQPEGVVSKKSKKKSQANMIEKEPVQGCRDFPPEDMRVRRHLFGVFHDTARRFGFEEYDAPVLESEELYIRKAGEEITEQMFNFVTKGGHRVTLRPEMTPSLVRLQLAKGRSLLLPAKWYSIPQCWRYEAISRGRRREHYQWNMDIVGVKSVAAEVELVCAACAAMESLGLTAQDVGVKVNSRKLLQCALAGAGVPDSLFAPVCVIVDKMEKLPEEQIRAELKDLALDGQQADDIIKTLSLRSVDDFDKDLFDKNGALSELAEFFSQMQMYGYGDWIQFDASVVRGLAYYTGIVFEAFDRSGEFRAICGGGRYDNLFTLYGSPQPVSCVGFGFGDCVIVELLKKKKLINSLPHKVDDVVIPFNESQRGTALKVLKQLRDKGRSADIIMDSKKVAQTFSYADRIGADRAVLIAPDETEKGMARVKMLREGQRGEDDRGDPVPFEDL

ClpP1P2 = ClpP1P2 (Mycobacterium tuberculosis (strain ATCC 25618 / H37Rv), UniProt P9WPC3+P9WPC5); test: in vitro assay to detect presence of AMC directly proportional to the activity of ClpP1P2. GHDDI collaboration.; type: functional
Plasmodium falciparum = test: Calibr Malaria Delayed Death Assay SOP; type: functional, organism-based
Tryptophan--tRNA ligase = Tryptophan--tRNA ligase (Mycobacterium tuberculosis (strain ATCC 25618 / H37Rv), UniProt P9WFT3); test: Biochemical assay for Mt-TrpRS; type: functional

Row | SMILES | pIC50 (Leishmania donovani) | IC50 (Leishmania donovani) [µM] | IC50 (Histidine--tRNA ligase) | other results
1 | NCC1Cc2cc(Cl)cc(-c3cncc(C(=O)N4CCCCC4)n3)c2O1 (centres undefined) | 4.491 | 20.8 | – | –
2 | CCCc1nc(N(C)CCN2CCCCCC2)c2cnn(C)c2n1 | – | – | 41.4 µM and 39.5 µM | IC50 [1]: > 50.1 µM; IC50 [2]: 28.3 µM
3 | Cc1cc2c(c(-c3cncc(C(=O)N4CCCC4)n3)c1)OC(CN)C2 (centres undefined) | 4.717 | 27.5 | – | –
4 | Cn1ncc2c(N3CCCC4(CCNC4)C3)nc(C(C)(C)C)nc21 (centres undefined) | 4.611 and 4.922 | – | – | –
5 | Cc1cc(C)n(CC(=O)N2C[C@@H]3CC[C@H](C2)N(CC2CCC2)C3)c(=O)n1 | – | – | 16.8 µM and 12 µM | IC50 (ClpP1P2): > 100 µM
6 | Cn1cc(-c2c(C#N)c(N)nc3c2CCc2[nH]ccc2-3)cn1 | – | – | 11.2 µM and 16.9 µM | IC50 (ClpP1P2): > 100 µM
7 | COc1ccc(-c2cc(CNc3ncnc4c3CCNCC4)no2)cc1 | 4.744 | 22.5 | – | –
8 | CC(=O)Nc1ccc2nc(CN(C)Cc3snnc3C)ccc2c1 | – | – | 51.3 µM and 57.2 µM | IC50 (ClpP1P2): > 100 µM
9 | CCCN1C[C@H]2CC[C@@H]1CN(Cc1ccc(-n3cccn3)cc1)C2 | – | – | 33.2 µM and 35 µM | IC50 [1]: 21.4 µM; IC50 [2]: 4.84 µM
10 | CN(CC1CCN(c2ccccc2)C1)c1ccc(Cn2ccnc2)cn1 (centres undefined) | – | – | 91.9 µM and 98.7 µM | IC50 [1]: 27.4 µM; IC50 [2]: 27.7 µM
11 | Cn1cc(-c2c(C#N)c(N)nc3c2CCc2[nH]ccc2-3)cc1C#N | – | – | 28 µM and 21.7 µM | IC50 (ClpP1P2): > 100 µM
12 | CCCc1ccc(OC23CCCN(CC2)C3)c(OC)c1 (centres undefined) | – | – | 38 µM and 39.5 µM | IC50 [1]: 22.7 µM; IC50 [2]: 23.5 µM
13 | CCC[C@@H]1CN(C(=O)c2cc3ccccc3cc2O)C[C@H]1N(C)C | – | – | 38 µM and 45 µM | IC50 (ClpP1P2): > 100 µM
14 | c1ccc(Oc2cccc(OC34CCCN(CC3)C4)c2)cc1 (centres undefined) | – | – | 53.2 µM and 46.4 µM | IC50 [1]: 15.9 µM; IC50 [2]: 18.1 µM
15 | CC(C)COc1cccc(-c2nc3c([nH]2)CCNC3)c1 | 4.688 | 19.2 | – | –
16 | c1ccc2sc(N3CCCN(c4ncnc5c4CCNC5)CC3)nc2c1 | – | – | 76.9 µM and 73.9 µM | pIC50 (Plasmodium falciparum): 5.791; IC50 (Plasmodium falciparum; Plasmodium falciparum): 1.56 µM
17 | N#CC1CCCN(c2nc(-c3ccccc3)nc3c2CCNCC3)C1 (centres undefined) | 4.667 | 20.6 | – | –
18 | COCCNc1nc(C2CCCC2)nc2c1CCNCC2 | 4.615 | 17.4 | – | –
19 | Cc1c(CN2CCOCC2)c(O)n(CCO)c(=O)c1C#N | – | – | 35.3 µM and 35.6 µM | IC50 (Tryptophan--tRNA ligase): > 195 µM

Row | SMILES | pIC50 (Leishmania donovani) | IC50 (Leishmania donovani) [µM] | IC50 (Histidine--tRNA ligase) | other results
20 | N#CCCSc1sc2c(O)cc(O)nc2c1C#N | – | – | 18.7 µM and 27.5 µM | IC50 (Tryptophan--tRNA ligase): > 195 µM
21 | CCCC1CCCN(Cc2csc(-c3ncccn3)n2)CC1 (centres undefined) | 4.896 | 18.4 | – | –
22 | CNc1cc2c(nn1)CCN(C(=O)c1coc(Br)c1)C2 | – | – | 51.3 µM and 66.4 µM | IC50 (ClpP1P2): > 100 µM
23 | CC(C)c1nc(CC(=O)Nc2nc(CN3CCCCCC3)cs2)cs1 | – | – | 39.8 µM and 33.5 µM | IC50 [1]: 21.2 µM; IC50 [2]: 23.2 µM
24 | Cc1nccn1CCCn1cncc1-c1ccc2c(c1)CCC(C)N2C (centres undefined) | – | – | 6.86 µM and 7.15 µM | IC50 (ClpP1P2): > 100 µM
25 | CCN1c2ccc(-c3cncn3CCCn3ccnc3C)cc2CC1C.Cl (centres undefined) | – | – | 39.6 µM and 37.5 µM | IC50 [1]: 46.6 µM; IC50 (ClpP1P2): > 100 µM; IC50 [2]: 42.9 µM
26 | O=C(Cn1c(-c2ccco2)cc2cccnc21)N1CCCC1 | – | – | 21.5 µM and 27.9 µM | IC50 (ClpP1P2): > 100 µM
27 | COc1cccc(Nc2nc(-c3ccncc3)nc3c2CNCC3)c1.Cl | 4.645 and 4.976 | – | – | –
28 | COc1cccc(Nc2nc(N3CCCC3)nc3c2CNCC3)c1.Cl | 5.277 | 4.47 | – | –
29 | Cl.NCC(=O)N1CCC(c2ccnc(Nc3cc(C(F)(F)F)ccn3)n2)C1 (centres undefined) | 4.798 | 15 | – | –
30 | Cc1nc(C2(O)CCCNCC2)sc1CCOc1ccccc1Cl.Cl (centres undefined) | 5.014 | 12.5 | – | –
31 | Cc1nc(C2(O)CCCNCC2)sc1CCOc1ccccc1.Cl (centres undefined) | 4.482 | 24.2 | – | –
32 | CCC(N)C(=O)N1CCC(OCc2ccc(Cl)c(Cl)c2)CC1.Cl (centres undefined) | 4.694 | 21.5 | – | –
33 | Cc1ccc(S(=O)(=O)N2CCc3nc(C4CCNCC4)ncc3C2)cc1 | – | – | > 100 µM and 97.1 µM | IC50 [1]: 6.39 µM; IC50 [2]: > 50.1 µM
34 | CC(C)C[C@H](N)C(=O)N1CC2(CCNCC2)c2cc(Cl)ccc21.Cl.Cl | 4.898 and 5.256 | – | – | –
35 | O=C(c1c[nH]cn1)N1CCC(F)(F)C2(CCN(c3ncccn3)C2)C1 (centres undefined) | – | > 50.1 | – | –
36 | CCc1ccc(CN2CCC3(CC2)CC(N2CCN(C)CC2)CO3)cc1.O=C(O)C(F)(F)F (centres undefined) | 4.908 and 5.404 | – | – | –
37 | Clc1ccc(C2(CNC3=NCCN3)CCCCC2)cc1.I | – | – | 85 µM and 71.6 µM | pIC50 (Plasmodium falciparum): 6.717 and 7.044
